The values that follow are results of earlier work, collected in patent US20230346899A1 (priority 2022, published 2023).

This data set has as its system SARS-CoV-2. The settings on record: moderate COVID-19 patients.

For aprotinin, the “Median time to elimination of SARS-CoV-2 confirmed by RT-PCR, days (IQR)” value is recorded as 7.5 (6-9) days; the “Median time to improvement in clinical status by 2 points on the WHO-OSCI, days (IQR)” value is on record as 11.0 (6-11) days; the “Median time to normalization of CRP concentration (≤10 mg/L) in patient's blood, days (IQR)” value is reported as 6.0 (6-6) days; the “Median time to normalization of D-dimer concentration (<253 ng/mL) in patient's blood, days (IQR)” value is 4.5 (3-6) days. The “Median time to normalization of body temperature (<37° C.), days (IQR)” value is recorded as 3.0 (2-3) days.

For favipiravir [FVP + SOC)], the “Median time to elimination of SARS-CoV-2 confirmed by RT-PCR, days (IQR)” value was 4.5 (4-9) days; the “Median time to improvement in clinical status by 2 points on the WHO-OSCI, days (IQR)” value is reported as 14.0 (11.5-16) days; the “Median time to normalization of CRP concentration (≤10 mg/L) in patient's blood, days (IQR)” value is on record as 14.0 (5.5-14) days; the “Median time to normalization of body temperature (<37° C.), days (IQR)” value was 2.0 (1-3) days.
